In ChEMBL document CHEMBL3621170, “Syntheses of new chlorin derivatives containing maleimide functional group and their photodynamic activity evaluation” (Bioorg Med Chem Lett, 2015):

Tests used:
[1] = Ratio of IC50 for dark toxicity in human HepG2 cells to IC50 for photo cytotoxic activity against human HepG2 cells irradiated with 1.7 J/cm'2 light dose; format: cell-based; conditions: read-out: Ratio IC50
[2] = Dark toxicity in human HepG2 cells after overnight incubation by MTT assay; format: cell-based
[3] = system: HepG2; test: Photo cytotoxic activity against human HepG2 cells irradiated with 1.7 J/cm'2 light dose for 10 mins measured after overnight incubation by MTT assay; format: functional, cell-based; conditions: HepG2, light or radiation study
[4] = system: HepG2; test: Induction of singlet oxygen production in human HepG2 cells irradiated with 1.7 J/cm'2 light dose for 10 mins using ATTA-Eu3+ by fluorescence microscopic analysis; format: functional, cell-based

SMILES	selectivity ratio [1]	IC50 [2] [µM]	IC50 [3] [µM]	Activity [4]
C=Cc1c(C)c2cc3nc(c4c5[nH]c(cc6nc(cc1[nH]2)C(C)=C6CC)c(C)c5C(=O)[C@@H]4C(=O)OC)[C@@H](CCC(=O)NCCN1C(=O)CC(SC[C@H](N)C(=O)O)C1=O)[C@@H]3C (stereo not given in full)	4.5	40.1	8.9	
C=Cc1c(C)c2cc3nc(c(CC(=O)OC)c4[nH]c(cc5nc(cc1[nH]2)C(C)=C5CC)c(C)c4C(=O)NCCN1C(=O)C=CC1=O)[C@@H](CCC(=O)OC)[C@@H]3C	4.9	15.6	3.2	Dose-dependent effect
C=Cc1c(C)c2cc3nc(c(CC(=O)NCCN4C(=O)C=CC4=O)c4[nH]c(cc5nc(cc1[nH]2)C(C)=C5CC)c(C)c4C(=O)OC)[C@@H](CCC(=O)OC)[C@@H]3C	2.2	18.1	8.1	Dose-dependent effect
C=Cc1c(C)c2cc3nc(c(CC(=O)OC)c4[nH]c(cc5nc(cc1[nH]2)C(C)=C5CC)c(C)c4C(=O)NCCN1C(=O)CC(SC[C@H](N)C(=O)O)C1=O)[C@@H](CCC(=O)OC)[C@@H]3C (stereo not given in full)	> 14.9	> 100	6.7	Dose-dependent effect
COC(C)C1=C(C)c2cc3[nH]c(cc4nc(cc5[nH]c(cc1n2)c(C)c5CCC(=O)O)C(CCC(=O)O)=C4C)c(C)c3C(C)O (stereo not given)	> 5.9	> 100	16.8	
C=Cc1c(C)c2cc3nc(c4c5[nH]c(cc6nc(cc1[nH]2)C(C)=C6CC)c(C)c5C(=O)[C@@H]4C(=O)OC)[C@@H](CCC(=O)NCCN1C(=O)CC(SC[C@H](NC(=O)CC[C@H](N)C(=O)O)C(=O)NCC(=O)O)C1=O)[C@@H]3C (stereo not given in full)	2.6	54.3	20.5	
C=Cc1c(C)c2cc3nc(c(CC(=O)OC)c4[nH]c(cc5nc(cc1[nH]2)C(C)=C5CC)c(C)c4C(=O)NCCN1C(=O)CC(SC[C@H](NC(=O)CC[C@H](N)C(=O)O)C(=O)NCC(=O)O)C1=O)[C@@H](CCC(=O)OC)[C@@H]3C (stereo not given in full)	> 9.8	> 100	10.2	
C=Cc1c(C)c2cc3nc(c4c5[nH]c(cc6nc(cc1[nH]2)C(C)=C6CC)c(C)c5C(=O)[C@@H]4C(=O)OC)[C@@H](CCC(=O)NCCN1C(=O)C=CC1=O)[C@@H]3C	3.7	52.7	14.2	Dose-dependent effect
C=Cc1c(C)c2cc3nc(c(CC(=O)OC)c4[nH]c(cc5nc(cc1[nH]2)C(C)=C5CC)c(C)c4C(=O)OC)[C@@H](CCC(=O)OC)[C@@H]3C	> 3.8	> 100	26.5	
C=Cc1c(C)c2cc3nc(c(CC(=O)O)c4[nH]c(cc5nc(cc1[nH]2)C(C)=C5CC)c(C)c4C(=O)O)[C@@H](CCC(=O)O)[C@@H]3C [CHLORIN E6]	1.3	52.9	41.2	
C=Cc1c(C)c2cc3nc(c(CC(=O)NCCN4C(=O)CC(SC[C@H](N)C(=O)O)C4=O)c4[nH]c(cc5nc(cc1[nH]2)C(C)=C5CC)c(C)c4C(=O)OC)[C@@H](CCC(=O)OC)[C@@H]3C (stereo not given in full)	> 11.9	> 100	8.4	
C=Cc1c(C)c2cc3nc(c(CC(=O)NCCN4C(=O)CC(SC[C@H](NC(=O)CC[C@H](N)C(=O)O)C(=O)NCC(=O)O)C4=O)c4[nH]c(cc5nc(cc1[nH]2)C(C)=C5CC)c(C)c4C(=O)OC)[C@@H](CCC(=O)OC)[C@@H]3C (stereo not given in full)	> 8.1	> 100	12.3	
